pIC50: −log10 of the molar value. Read-outs that look alike come from different tables or passages of the source. Blank lines part the entries; values can stand above or below the compound they belong to.
Tests used:
hTRPV3 single channel = biological target: T1, hTRPV3 single channel (Homo sapiens, UniProt Q8NET8); experiment: Inside-out single-channel recordings of TRPV3 in HEK293 cells; assay type: cell-based; settings: agonist 2-APB 30 μmol/L alone, −60 mV
T1 construct: expressed in transfected cells; host or cells: HEK293
T1 sequence (Q8NET8 1-790): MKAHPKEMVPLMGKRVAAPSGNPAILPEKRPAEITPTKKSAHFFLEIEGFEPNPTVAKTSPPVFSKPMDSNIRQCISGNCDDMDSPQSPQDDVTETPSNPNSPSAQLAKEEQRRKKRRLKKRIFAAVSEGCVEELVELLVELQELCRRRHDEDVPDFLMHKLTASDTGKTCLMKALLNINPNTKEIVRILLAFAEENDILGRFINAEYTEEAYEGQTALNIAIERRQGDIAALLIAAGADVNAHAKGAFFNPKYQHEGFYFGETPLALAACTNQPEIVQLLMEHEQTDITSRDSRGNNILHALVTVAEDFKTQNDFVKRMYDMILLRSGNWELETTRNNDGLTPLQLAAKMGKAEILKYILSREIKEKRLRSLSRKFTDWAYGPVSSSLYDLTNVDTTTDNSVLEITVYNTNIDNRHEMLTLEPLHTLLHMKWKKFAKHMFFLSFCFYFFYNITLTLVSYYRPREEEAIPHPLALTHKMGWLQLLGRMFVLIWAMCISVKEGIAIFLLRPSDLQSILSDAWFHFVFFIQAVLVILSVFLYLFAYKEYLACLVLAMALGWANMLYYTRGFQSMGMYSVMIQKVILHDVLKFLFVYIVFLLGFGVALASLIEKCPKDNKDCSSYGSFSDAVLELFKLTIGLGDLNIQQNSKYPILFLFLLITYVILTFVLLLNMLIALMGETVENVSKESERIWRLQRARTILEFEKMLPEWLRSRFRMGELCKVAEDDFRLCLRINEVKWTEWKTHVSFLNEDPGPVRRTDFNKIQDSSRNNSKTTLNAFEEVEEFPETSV
Text: For single-channel recordings, borosilicate glass pipettes were pulled from borosilicate glass capillaries and fire-polished to the resistance between 6 and 10 MΩ using a DMZ universal electrode puller (Zeitz-Instruments, GmbH). For inside-out single-channel recordings, both pipette and external solutions contained (in mM): 130 NaCl, three HEPES, and 0.2 EDTA (pH = 7.4). Membrane potential was clamped at −60 mV and currents were digitized at 10 kHz and filtered at 2 kHz.

TRPV2 = tested on: TRPV2; design: method as in PMID 33876725; settings: ref [18]; read-out: IC50 TRPV2 currents; cited from earlier work
TRPV3 = settings: cited from earlier work
TRPM8 = tested on: TRPM8; design: method as in PMID 33876725; settings: ref [18]; read-out: IC50 TRPM8 currents; cited from earlier work
TRPV4 = tested on: TRPV4; design: method as in PMID 30108138, PMID 27160770; settings: ref [16], [42]; cited from earlier work
TRPV1 = tested on: TRPV1; design: method as in PMID 30108138, PMID 27160770; settings: ref [16], [42]; cited from earlier work
TRPA1 = tested on: TRPA1; design: method as in PMID 30377214; settings: ref [17]; cited from earlier work

single-channel conductance (hTRPV3 single channel): about 170.9 ± 4.8 pS
single-channel open probability (hTRPV3 single channel): 0.75
Compound: NCCOB(c1ccccc1)c1ccccc1 [2-APB, 2-aminoethoxydiphenyl borate]

Compound: CCCCOc1ccc(C(=O)CCN2CCCCC2)cc1 [dyclonine]
pIC50 (TRPV2): 4.51
pIC50 (TRPV3; ref [18], read-out: IC50 TRPV3 currents): ~5.49
pIC50 (TRPM8): 4.09

Compound: COc1ccc2ccc(=O)oc2c1CC=C(C)C [osthole]
inhibition of TRPV4 (TRPV4): weak inhibition
pIC50 (TRPV3; ref [16], [42], read-out: IC50 TRPV3): ~4.43
inhibition of TRPV1 (TRPV1): weak inhibition

Compound: forsythoside B
inhibition of TRPA1 currents (TRPA1): weak inhibition
pIC50 (TRPV3; ref [17], read-out: IC50 TRPV3 currents): ~5.17

— paper PMC10828444, “Selective inhibition of overactive warmth-sensitive Ca^2+-permeable TRPV3 channels by antispasmodic agent flopropione for alleviation of skin inflammation” (The Journal of Biological Chemistry, 2023)
